Assay results from US20250186373A1, “TARGETING AN EUKARYOTIC INITIATION FACTOR 2 ALPHA KINASE TO REGULATE TRANSLATION UNDER STRESS” (The Johns Hopkins University, priority 2022, published 2025).
Read-outs that look alike come from different tables or passages of the source. Where a SMILES comes first, the peptide text is derived from it. The star is where a group is joined. Cbz = O=C(OCc1ccccc1)*

Legend:
MARK2 [1] = target: T1, MARK2 (Mus musculus, UniProt Q05512); assay: cell-based MARK2 kinase activity assay based on eIF2α phosphorylation (immunoblot of MEFs); details: for phosphorylation level of eIF2α-51S: FIG. 21B; for activity in inhibiting the phosphorylation of eIF2α: comparison of seven drugs, FIG. 21E
T1 construct: endogenous in cells; host or cells: mouse embryonic fibroblasts (MEFs)
T1 sequence (Q05512 whole entry): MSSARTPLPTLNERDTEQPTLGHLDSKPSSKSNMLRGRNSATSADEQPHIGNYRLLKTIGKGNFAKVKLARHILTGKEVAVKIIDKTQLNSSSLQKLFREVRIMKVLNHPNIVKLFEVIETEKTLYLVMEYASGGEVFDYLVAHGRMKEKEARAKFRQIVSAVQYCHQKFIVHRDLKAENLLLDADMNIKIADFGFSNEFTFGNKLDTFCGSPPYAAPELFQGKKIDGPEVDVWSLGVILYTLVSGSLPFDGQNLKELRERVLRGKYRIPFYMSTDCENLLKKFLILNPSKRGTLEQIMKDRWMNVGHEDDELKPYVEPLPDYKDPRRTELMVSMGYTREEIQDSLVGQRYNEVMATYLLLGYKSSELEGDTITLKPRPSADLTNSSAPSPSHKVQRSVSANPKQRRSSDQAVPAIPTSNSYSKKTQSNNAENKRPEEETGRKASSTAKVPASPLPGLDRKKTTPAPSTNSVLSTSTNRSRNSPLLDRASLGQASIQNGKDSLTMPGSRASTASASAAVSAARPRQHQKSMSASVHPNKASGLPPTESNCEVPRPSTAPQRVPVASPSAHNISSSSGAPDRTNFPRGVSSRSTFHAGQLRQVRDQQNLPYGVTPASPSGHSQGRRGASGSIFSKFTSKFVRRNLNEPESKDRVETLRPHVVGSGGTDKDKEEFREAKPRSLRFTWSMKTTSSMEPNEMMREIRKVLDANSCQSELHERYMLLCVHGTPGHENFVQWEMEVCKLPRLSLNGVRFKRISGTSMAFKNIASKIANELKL
Procedure: Cells were washed twice with 1× PBS and then lysed and harvested on ice in RIPA solution (50 mM Tris-HCl (pH 7.6); 150 mM NaCl; 1% NP-40; 1% SDS; 100 mM sodium fluoride; 17.5 mM β-glycerophosphate; 0.5% sodium deoxycholate; 10% glycerol). The RIPA buffer was supplemented with EDTA-free protease inhibitor cocktail (Roche, USA), phosphatase inhibitor cocktail 2 and phosphatase inhibitor cocktail 3 (Sigma-Aldrich, USA), 1 μM phenylmethanesulfonyl fluoride, and 2 μM sodium orthovanadate. Lysates were kept cold on ice, pulse-sonicated for 10 min, and then centrifuged at 12,000 g at 4° C. for 10 min. The protein content of each sample was determined by a bicinchoninic acid (BCA) assay (Thermo Fisher). Equal amounts of total protein extract were resolved by SDS-PAGE and transferred to nitrocellulose membranes (Millipore HATF08550, USA). The blots were blocked with 5% w/v BSA and 0.05% NaN3 in TBST and incubated with primary antibodies at 4° C. overnight, then finally incubated with appropriate secondary antibodies. The antibodies used include those against eIF2α (Cell Signaling 5324, USA), peIF2α (Cell Signaling 9721), PERK (Cell Signaling 3192), pPERK-^980T (Cell Signaling 3179), PKR (Santa Cruz SC-708 and SC-6282), HRI (Millipore 07-728), GCN2 (Cell Signaling 3302), pGCN2-899T (Abcam ab75836, USA), ATF4 (Cell Signaling 11815), HSP90 (Cell Signaling 8165), HSP70 (Cell Signaling 4872), Flag (Sigma F1804), Actin (Santa Cruz SC-47778), Tubulin (Proteintech 10068-1-AP, USA), PKCδ (Santa Cruz SC-937; Cell Signaling 2058), pPKCδ-311Y (Cell Signaling 2055), pPKCδ-^505T (Cell Signaling 9374), MARK2 (Abcam ab135816; Santa Cruz SC-365405), pMARK2-^595T (Abcam ab34751), PP1a (Cell Signaling 2582), pPP1α-^320T (Cell Signaling 2581), and puromycin (Millipore MABE343). Images were captured with an Odyssey imager and analyzed with Image Studio software (Licor 9120, USA).

[2] = tested on: interaction between PKCδ and HSP90; assay: coimmunoprecipitation of HSP90 by anti-PKCδ antibody in MEFs; format: cell-based, mouse; details: MEF cells treated with MG132
Source text: We next investigated how the PKC&-MARK2-eIF2α signaling pathway senses protein misfolding stress. Since misfolded proteins, including SOD1, are prone to interact with molecular chaperone proteins, Wang et al., 2009; Tummala et al., 2005, we reasoned that the upstream regulator PKCδ could potentially interact with a molecular chaperone and that disruption of this interaction by misfolded proteins during proteotoxic stress might be a mechanism to account for the activation of the PKCδ kinase. We searched a protein-protein interaction database, Szklarczyk et al., 2015, and identified several candidate interactors of PKCδ, including HSP90, HSP90a, and HSP70. To evaluate potential interactions between PKCδ and these molecular chaperones, we performed coimmunoprecipitation experiments with endogenous proteins in MEF cells. After immunoprecipitation of PKCδ, only HSP90 was pulled down by PKCδ (FIG. 3A). When the level of PKCδ protein was elevated via stable expression in MEF cells, more HSP90 protein could be coimmunoprecipitated by PKCδ. Conversely, depletion of PKCδ from MEFs or use of an IgG control instead of the anti-PKCδ antibody abolished the coimmunoprecipitation of HSP90, confirming the specific interaction between PKCδ and HSP90 (FIG. 3A). […]

[3] = tested on: PKCδ-MARK2-eIF2α signaling pathway; format: cell-based, mouse
Procedure: Since the phosphorylation of MARK2 at threonine 595 is required for its positive regulation of eIF2α phosphorylation (FIG. 1E), we asked whether this form of phosphorylated MARK2 is regulated upon cytosolic protein misfolding stress.
The condition of MG132 treatment at 20 μM for 4 h was chosen for optimal induction of eIF2α phosphorylation in the analysis of these MEFs (FIG. 9D). To test whether activation of MARK2 also can be induced by other types of stress, we subjected the cells to oxidative stress, such as sodium arsenite treatment, or ER stress, such as tunicamycin treatment.
Cells were washed twice with 1× PBS and then lysed and harvested on ice in RIPA solution (50 mM Tris-HCl (pH 7.6); 150 mM NaCl; 1% NP-40; 1% SDS; 100 mM sodium fluoride; 17.5 mM β-glycerophosphate; 0.5% sodium deoxycholate; 10% glycerol). The RIPA buffer was supplemented with EDTA-free protease inhibitor cocktail (Roche, USA), phosphatase inhibitor cocktail 2 and phosphatase inhibitor cocktail 3 (Sigma-Aldrich, USA), 1 μM phenylmethanesulfonyl fluoride, and 2 μM sodium orthovanadate. Lysates were kept cold on ice, pulse-sonicated for 10 min, and then centrifuged at 12,000 g at 4° C. for 10 min. The protein content of each sample was determined by a bicinchoninic acid (BCA) assay (Thermo Fisher). Equal amounts of total protein extract were resolved by SDS-PAGE and transferred to nitrocellulose membranes (Millipore HATF08550, USA). The blots were blocked with 5% w/v BSA and 0.05% NaN3 in TBST and incubated with primary antibodies at 4° C. overnight, then finally incubated with appropriate secondary antibodies.

MARK2 [4] = details: previous report; cited from earlier work
[5] = WT and 4-KO MEFs, sodium arsenite 200 μM, 1 h

**Q.** With `Cc1c[nH]c(-c2cnc(NCCNc3ccc(C#N)cn3)nc2-c2ccc(Cl)cc2Cl)n1` [CHIR99021] as the compound, how does the “phosphorylation level of eIF2α-51S” value (MARK2 [1]; MEFs, 20 μM, 1 hr, versus DMSO control) read?
**A.** decreased the phosphorylation level of eIF2α-^51S

**Q.** And the “levels of phosphorylated eIF2α-51S” value (MARK2 [1]; at low concentrations)?
**A.** substantially lowering the levels of phosphorylated eIF2α-^51S

**Q.** What about the “activity in inhibiting the phosphorylation of eIF2α” value (MARK2 [1]) of the same compound?
**A.** high activity

**Q.** With `COc1cc2ncnc(Nc3ccc(F)c(Cl)c3)c2cc1OCCCN1CCOCC1` [Gefitinib] as the compound, how does the “phosphorylation level of eIF2α-51S” value (MARK2 [1]; MEFs, 40 μM, 1 hr, versus DMSO control) read?
**A.** needs a higher concentration than CHIR99021 to achieve the similar effect

**Q.** What about the “activity in inhibiting the phosphorylation of eIF2α” value (MARK2 [1]) of the same compound?
**A.** low activity

**Q.** What does the source list for `CC(C)C[C@@H](C=O)NC(=O)[C@H](CC(C)C)NC(=O)[C@H](CC(C)C)NC(=O)OCc1ccccc1` [MG132] (Cbz-Leu-Leu-Leu-aldehyde)?
**A.** interaction between PKCδ and HSP90 [2]: completely abolished the interaction between PKCδ and HSP90; level of the ATF4 protein ([3]; MEF cells treated with MG132): increased the level of the ATF4 protein; levels of phosphorylated MARK2-595T ([3]; MEF cells treated with MG132): substantial increase; levels of phosphorylated eIF2α-51S ([3]; MEF cells treated with MG132): corresponding increase; time at which phosphorylation of eIF2α-51S peaked ([3]; MEFs, MG132 20 μM time course): around 4 h

**Q.** Which results are given for `Cn1cc(C2=C(c3ccc(Cl)cc3Cl)C(=O)NC2=O)c2ccccc21` [SB216763]?
**A.** phosphorylation of eIF2α-51S (MARK2 [1]; MEFs, 20 μM, 1 hr, versus DMSO control, FIG. 21A): substantially reduces the phosphorylation of eIF2α-^51S; increase in the levels of phosphorylated eIF2α-51S in response to MG132 (MARK2 [1]; cell co-treatment with MG132): substantially diminished the increase; activity in inhibiting the phosphorylation of eIF2α (MARK2 [1]): high activity for inhibiting eIF2α phosphorylation; activity in inhibiting the phosphorylation of eIF2α (MARK2 [1]; listed as SB-216763): high activity; MARK kinase function (MARK2 [4]): inhibited MARK kinase function

**Q.** Which “phosphorylation of MARK2-595T” value [3, 5] does the source give for `O=[As]O` [sodium arsenite] here?
**A.** able to induce the phosphorylation

**Q.** What about the “phosphorylation of eIF2α-51S” value [3, 5] of the same compound?
**A.** able to induce the phosphorylation

**Q.** Which results are given for tunicamycin?
**A.** phosphorylation of MARK2-595T ([3]; MEFs, tunicamycin 24 μg/ml, 2 h): no effect on the phosphorylation of MARK2-^595T; phosphorylation of eIF2α-51S ([3]; WT and 4-KO MEFs, tunicamycin 24 μg/ml, 2 h): induced the phosphorylation of eIF2α-^51S in WT MEFs but not in the cells lacking the 4 previously known kinases
